Reference: ChEMBL document CHEMBL1933055, “Discovery of bacterial NAD⁺-dependent DNA ligase inhibitors: improvements in clearance of adenosine series” (Bioorg Med Chem Lett, 2012)
Values after ≈ are worked out from the molar mass of the structure shown.

Assays:
[1] = Plasma clearance in rat at 3 mg/kg, iv; type: ADME, organism-based; parameters: dose 3 mg/kg, route intravenous
[2] = system: Streptococcus pneumoniae; assay: Antimicrobial activity against Streptococcus pneumoniae D39; type: functional
[3] = Renal clearance in iv dosed rat; type: ADME, organism-based, Kidney; details: in vivo
[4] = system: Streptococcus pneumoniae; assay: Antibacterial activity against Streptococcus pneumoniae; type: functional
[5] = Total clearance in iv dosed rat; type: ADME, organism-based; details: in vivo
[6] = Lipophilicity, log D of the compound; details: octanol/water
[7] = Solubility of the compound; type: physicochemical
[8] = Fraction unbound in human plasma; type: ADME, cell-free
[9] = system: Rattus norvegicus; assay: Hepatic blood flow in iv dosed rat; type: ADME, organism-based, Liver; details: in vivo
[10] = Oral bioavailability in rat; type: ADME, organism-based; details: in vivo
[11] = Clearance in iv dosed dog; type: ADME, organism-based, Canis lupus familiaris; details: in vivo
[12] = system: Canis familiaris; assay: Hepatic blood flow in iv dosed dog; type: ADME, organism-based, Canis lupus familiaris, Liver; details: in vivo
[13] = Oral bioavailability in dog; type: ADME, organism-based, Canis lupus familiaris; details: in vivo

Compound | clearance [1] [mL/min/kg] | MIC [2] [µg/mL] | CL renal [3] [mL/min/kg] | MIC [4] [µg/mL] | clearance [5] [mL/min/kg] | logD [6] | other results
Nc1nc(OCC2CC2)nc2c1ncn2[C@@H]1O[C@H](CF)[C@@H](O)[C@H]1O |  |  | 13 | 8 (≈ 23.6 µM) | 49 |  | 
CC1CC1COc1nc(N)c2ncn([C@@H]3O[C@H](CF)[C@@H](O)[C@H]3O)c2n1 (some centres not stated) |  |  | 11 | 4 (≈ 11.3 µM) | 115 |  | 
C[C@H]1O[C@@H](n2cnc3c(N)nc(OC4CC(F)(F)C4(F)F)nc32)[C@H](O)[C@@H]1O (some centres not stated) |  |  | 16 | 16 (≈ 40.7 µM) | 23 | 1.3 | 
C[C@H]1O[C@@H](n2cnc3c(N)nc(OCC4CC(F)(F)C4(F)F)nc32)[C@H](O)[C@@H]1O (some centres not stated) |  |  | 17 | 4 (≈ 9.82 µM) | 85 | 1.4 | 
Nc1nc(OCC2CCC2)nc2c1ncn2[C@@H]1O[C@H](CF)[C@@H](O)[C@H]1O | 73 | 2 (≈ 5.66 µM) |  |  |  |  | 
C[C@H]1O[C@@H](n2cnc3c(N)nc(OC(C4CC4)C(F)(F)F)nc32)[C@H](O)[C@@H]1O (some centres not stated) |  |  | 5 | 8 (≈ 20.5 µM) | 73 | 1.8 | 

Now from value to molecule, other results behind:

clearance [1] [mL/min/kg] | MIC [2] [µg/mL] | CL renal [3] [mL/min/kg] | MIC [4] [µg/mL] | clearance [5] [mL/min/kg] | logD [6] | Compound | other results
50 | 2 (≈ 5.76 µM) |  |  |  |  | C[C@H]1O[C@@H](n2cnc3c(N)nc(OC4C[C@@H]5C[C@@H]5C4)nc32)[C@H](O)[C@@H]1O (some centres not stated) | 
83 | 4 (≈ 11.3 µM) |  |  |  |  | Nc1nc(OC2CCCC2)nc2c1ncn2[C@@H]1O[C@H](CF)[C@@H](O)[C@H]1O | 
96 | 1 (≈ 2.88 µM) |  |  |  |  | C[C@H]1O[C@@H](n2cnc3c(N)nc(OCC4CC45CC5)nc32)[C@H](O)[C@@H]1O (some centres not stated) | 
 |  | 8 | 16 (≈ 40.1 µM) | 58 | 1.7 | C[C@H]1O[C@@H](n2cnc3c(N)nc(OCC4CCC(F)(F)CC4)nc32)[C@H](O)[C@@H]1O | 
89 | 1 (≈ 2.75 µM) |  |  |  |  | C[C@H]1O[C@@H](n2cnc3c(N)nc(O[C@H]4CC[C@H](C)CC4)nc32)[C@H](O)[C@@H]1O | 
 |  | 13 | 16 (≈ 47.4 µM) | 67 | -0.06 | C[C@H]1O[C@@H](n2cnc3c(N)nc(OC4CCOC4)nc32)[C@H](O)[C@@H]1O (some centres not stated) | 
43 | 2 (≈ 5.96 µM) |  |  |  |  | C[C@H]1O[C@@H](n2cnc3c(N)nc(OC4CCCC4)nc32)[C@H](O)[C@@H]1O | 
 |  | 2 | 2 (≈ 4.79 µM) | 27 | 2.2 | C[C@H]1O[C@@H](n2cnc3c(N)nc(O[C@H]4CC[C@H](C(F)(F)F)CC4)nc32)[C@H](O)[C@@H]1O | solubility [7]: 800 µM (≈ 334 µg/mL); fraction unbound [8]: 0.2; QH [9]: 39%; bioavailability [10]: 86%; clearance [11]: 7.7 mL/min/kg; QH [12]: 20%; bioavailability [13]: 88%
 |  | 15 | 8 (≈ 20.8 µM) | 33 |  | C[C@H]1O[C@@H](n2cnc3c(N)nc(OC4CCC(F)(F)CC4)nc32)[C@H](O)[C@@H]1O | 
